Measurements reported in patent US10004750B2, “Salt of cephalosporin derivative, its crystalline solid and a method of manufacturing thereof” (Shionogi & Co., Ltd., priority 2014, dated 2018).
Each block holds one compound with its values, some of them ahead of it.

Legend:
Assay type in all cases: physicochemical
[1] = pKa measurement by capillary electrophoresis method (CE method); conditions: 25° C., pH 2.5 to 11.5 buffer
From the text: (Measuring Method by Capillary Electrophoresis Method, CE Method)
It is a method by using Capillary Zone Electrophoresis technique and a method of separation by using free electrophoresis of each sample component in a buffer including electrolyte.
After injecting a compound solution to fused silica capillary filling a buffer adjusting the pH 2.5 to 11.5, high voltage (Inlet side +, Outlet side −) is on capillary, and then a compound moves at a speed reflecting an ionized state at the pH of the buffer (a compound having (+) charge moves quickly, and a compound having (−) charged moves slowly). pKas was calculated by plotting the difference between the migration time of the compound and that of a neutral molecule (DMSO) against pH, and fitting. […]

[2] = Solubility of the compound (IA) in water
[3] = Solubility of sodium salt in various aqueous media
Protocol: To anisole (1.54 L) cooling in dry ice-ethanol bath was added aluminium chloride (495.4 g, 3.71 mol) followed by dichloromethane. 610 g of the crude product containing the compound 8 obtained by Step 1 was dissolved in a mixed solution of dichloromethane (0.51 L) and anisole (1.03 L) and spent 1 hour adding dropwise to the above aluminium chloride solution re-cooling to −40° C. The container used for the dropwise was washed with a mixed solution of dichloromethane (0.36 L) and anisole (0.51 L) and the wash fluid was added to the reaction solution. The reaction solution was stirred at −20° C. for 2 hours, and added to a mixed solution of ethanol (7.1 L), 1 mol/L hydrochloric acid (7.1 L) while stirring under cooling in ice-bath. The mixed solution was stirred for 30 minutes under ice-cooling, dichloromethane (5.14 L) and saturated brine (257 mL) was added, the separated aqueous layer was washed with dichloromethane (5.14 L). The organic layer was extracted with a mixture of water (2.57 L) and saturated brine (100 mL), and the separated aqueous layer was combined with the previous aqueous layer. The aqueous layer was stirred under cooling in ice-bath, and 2 mol/L sodium hydroxide aqueous solution was added to adjust pH to 1.5 and the solution was left to stand. The aqueous layer was concentrated and purified by HP20SS column (eluent: 13% acetonitrile water). Sodium bicarbonate (8.75 g) was added to the collected fractions containing the target product and the resulting solution was concentrated under reduced pressure until 500 mL. The solution was diluted by adding water (1.6 L) and filtered with cotton plug, and then the filtrate was lyophilized to yield the compound 9 (77.8 g). • Elemental analysis: (calculated as C30H33ClN7O10S2Na 4.5H2O) • Calculated: C; 42.13, H; 4.95, N; 11.46, S; 7.50, Cl; 4.14, Na; 2.69(%) • Measured: C; 42.22, H; 4.88, N; 11.24, S; 7.01, Cl; 4.04, Na; 2.74(%) The solubility of the obtained compound 9 in various aqueous medium (water for injection, saline, dextrose solution) was all 100 mg/mL or more, and they are very high solubility.

[4] = Dynamic vapor sorption measurement; conditions: 25° C.
Protocol: Dynamic vapor sorption (DVS) is a gravimetric technique that measures how quickly and how much of water is absorbed and desorbed by a sample in several relative humidity (RH). A degree of water absorption is calculated by weight change in controlled humidity increased from 0% RH to 95% RH stepped 5% or 10%. Similarly, a degree of water desorption is calculated in humidity decreased from 95% RH to 0% RH. An absorption-desorption isotherm is obtained by plotting a value of weight change in each humidity. […] When the anhydrate crystal transforms to hydrate crystal by humidity, the results of measurement indicate transformation humidity and amount of crystal water. The dynamic vapor sorption measurement of the crystalline solid obtained in each example was carried out. The sample of about 18.0 mg was measured and transferred to a sample pan, and it was measured. The measurement condition is shown below. • Device: DVS Advantage made by Surface Measurement Systems LTD. • Measurement point: each 5% from RH95% to RH0%. • Temperature: 25° C. (Method of Measuring the Karl Fischer Method) The results of a dynamic vapor sorption measurement of the type I crystal D obtained in Example 6-1 were shown in FIG. 7 and Table 7. Dynamic vapor sorption measurement can be occurred errors within the range of ±0.5%. An increased amount of water (%) represents an increased amount of the type I crystal at 0% RH.

[5] = Solid stability test of crystalline solid; conditions: −20±5° C. or 5±5° C., light shielding, double polyethylene bag in metal can, 0, 3, 6, 9, 12 months
Protocol: The type I crystal D about 1 g was put in a polyethylene bag and tightened with a convex. This bag was further put in a polyethylene bag and tightened with a convex in the same way. The above sample of the same storage conditions was put together in a metal can as a stability evaluation sample. The storage conditions, storage period and test items are as follows.
• Temperature: −20±5° C. or 5±5° C. • Light shielding • Package form: double polyethylene bag, convex, metal can • Storage period: 0, 3, 6, 9, 12 months (Measurement)
Using the type I crystal D stored at the above storage conditions and storage period, after viewing the change in appearance, the contents of the compound (IA) and the related substances were measured by the following method.
Step 1: Preparation of a Sample Solution
About 40 mg of the sample was weighed precisely, and dissolved in a sample dilution solvent to be exactly 25 mL. • 5 mmol/L phosphate buffer/liquid chromatography acetonitrile mixture (9:1) was used as the above sample dilution solvent was used. Herein, water: 0.05 mol/L sodium dihydrogen phosphate test solution: 0.05 mol/L disodium hydrogen phosphate reagent mixture=18:1:1 (pH is about 7.1) was used as a phosphate buffer. Step 2: HPLC Measurement of Related Substances
The above sample solution was measured by liquid chromatography under the following test condition to measure peak areas of the compound (IA) and its related substances by the automatic integration method.
• Column: YMC-UltraHT Pro C18, φ2.0×100 mm, 2 μm, YMC • Column temperature: 35° C. • UV detection wavelength: 261 nm • Mobile phase: [A] […]
• Flow rate: 0.5 mL per minute (a retention time of the compound (IA) about 5 minutes) The amount of related substances in the sample was determined by using the following formula. […]
The above standard solution and sample solution was measured by liquid chromatography under the following test condition to determine a peak area of the compound (IA) by an automatic integration method. […]
The content of related substances in the sample was determined using the following formula. […]

pKa1 [1]: 4.2
pKa2 [1]: 7.2
solubility in water [2]: very low
SMILES: CC(C)(O/N=C(\C(=O)N[C@@H]1C(=O)N2C(C(=O)[O-])=C(C[N+]3(CCNC(=O)c4ccc(O)c(O)c4Cl)CCCC3)CS[C@H]12)c1csc(N)n1)C(=O)O (stereo in doubt) [compound (IA)]

solubility ([3]; dextrose solution, saline or isotonic): ≥ 100 mg/mL
solubility ([3]; saline, saline or isotonic): ≥ 100 mg/mL
solubility ([3]; water for injection, water): ≥ 100 mg/mL
SMILES: CC(C)(O/N=C(\C(=O)N[C@@H]1C(=O)N2C(C(=O)[O-])=C(C[N+]3(CCNC(=O)c4ccc(O)c(O)c4Cl)CCCC3)CS[C@H]12)c1csc(N)n1)C(=O)O [compound 9]

Increased amount of water (%) ([4]; Relative humidity 0% RH, relative to type I crystal at 0% RH): 0.00%
Increased amount of water (%) ([4]; Relative humidity 5% RH, relative to 0% RH): 3.33%
Increased amount of water (%) ([4]; Relative humidity 10% RH, relative to 0% RH): 5.26%
Increased amount of water (%) ([4]; Relative humidity 15% RH, relative to 0% RH): 7.70%
Increased amount of water (%) ([4]; Relative humidity 20% RH, relative to 0% RH): 10.53%
Increased amount of water (%) ([4]; Relative humidity 25% RH, relative to 0% RH): 11.67%
Increased amount of water (%) ([4]; Relative humidity 30% RH, relative to 0% RH): 12.28%
Increased amount of water (%) ([4]; Relative humidity 35% RH, relative to 0% RH): 12.75%
Increased amount of water (%) ([4]; Relative humidity 40% RH, relative to 0% RH): 13.16%
Increased amount of water (%) ([4]; Relative humidity 45% RH, relative to 0% RH): 13.54%
Increased amount of water (%) ([4]; Relative humidity 50% RH, relative to 0% RH): 13.91%
Increased amount of water (%) ([4]; Relative humidity 55% RH, relative to 0% RH): 14.25%
Increased amount of water (%) ([4]; Relative humidity 60% RH, relative to 0% RH): 14.55%
Increased amount of water (%) ([4]; Relative humidity 65% RH, relative to 0% RH): 14.93%
Increased amount of water (%) ([4]; Relative humidity 70% RH, relative to 0% RH): 15.26%
Increased amount of water (%) ([4]; Relative humidity 75% RH, relative to 0% RH): 15.55%
Increased amount of water (%) ([4]; Relative humidity 80% RH, relative to 0% RH): 15.82%
Increased amount of water (%) ([4]; Relative humidity 85% RH, relative to 0% RH): 16.08%
Increased amount of water (%) ([4]; Relative humidity 90% RH, relative to 0% RH): 16.34%
Increased amount of water (%) ([4]; Relative humidity 95% RH, relative to 0% RH): 16.60%
change in appearance on storage [5]: no change in the appearance
increase of content of related substances on storage (HPLC) [5]: not observed
solid storage stability (overall) [5]: very stable
SMILES: CC(C)(O/N=C(\C(=O)N[C@@H]1C(=O)N2C(C(=O)[O-])=C(C[N+]3(CCNC(=O)c4ccc(O)c(O)c4Cl)CCCC3)CS[C@H]12)c1csc(N)n1)C(=O)O [type I crystal D]
